# Tests used:
# Type in all cases: in vivo
# [1] = system: waterhemp_RES1 (ALS & Triazine resistant common waterhemp, Amaranthus rudis); test: Test E greenhouse herbicide test, postemergence
# Procedure, shortened: (§1)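 Resistant waterhemp plants grown in peat/vermiculite potting medium were sprayed postemergence at the 1- to 4-leaf stage (2–18 cm tall). After 14 to 21 d in the greenhouse, injury was visually rated against untreated controls on a 0–100 scale, where 0 is no effect and 100 is complete control.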
# [2] = system: waterhemp_RES2 (ALS & HPPD resistant common waterhemp, Amaranthus rudis); test: Test E greenhouse herbicide test, postemergence
# Procedure, shortened: as §1
# [3] = system: horseweed (Conyza canadensis); test: Test E greenhouse herbicide test, pre- and postemergence; conditions: Postemergence
# From the text: (§2) Seeds of plant species selected from corn (Zea mays), soybean (Glycine max), velvetleaf (Abutilon theophrasti), lambsquarters (Chenopodium album), wild poinsettia (Euphorbia heterophylla), pigweed, palmer (palmer pigweed, Amaranthus palmeri), waterhemp (common waterhemp, Amaranthus rudis), surinam grass (Brachiaria decumbens), crabgrass, large (large crabgrass, Digitaria sanguinalis), crabgrass, Brazilian (Brazilian crabgrass, Digitaria horizontalis), panicum, fall (fall panicum, Panicum dichotomiflorum), foxtail, giant (giant foxtail, Setaria faberii), foxtail, green (green foxtail, Setaria viridis), goosegrass (Eleusine indica), johnsongrass (Sorghum halepense), ragweed (common ragweed, Ambrosia elatior), barnyardgrass (Echinochloa crus-galli), sandbur (southem sandbur, Cenchrus echinatus), arrowleaf sida (Sida rhombifolia), Italian ryegrass (Lolium multiflorum), dayflower (Virginia (VA) dayflower, Commelina virginica), field bindweed (Convolvulus arvensis), momingglory (Ipomoea coccinea), nightshade (eastern black nightshade, Solanum ptycanthum), kochia (Kochia scoparia), nutsedge, yellow (yellow nutsedge, Cyperus esculentus), horseweed (Conyza canadensis), and beggarticks (hairy beggarticks, Bidens pilosa), were planted into a silt loam soil and treated preemergence with test chemicals formulated in a non-phytotoxic solvent mixture which included a surfactant.
# (§3) At the same time, plants from these crop and weed species and also waterhemp_RES1, (ALS & Triazine resistant common waterhemp, Amaranthus rudis), and waterhemp_RES2, (ALS & HPPD resistant common waterhemp, Amaranthus rudis) were planted in pots containing Redi-Earth® planting medium (Scotts Company, 14111 Scottslawn Road, Marysville, Ohio 43041) comprising spaghnum peat moss, vermiculite, wetting agent and starter nutrients were treated with postemergence applications of test chemicals formulated in the same manner. Plants ranged in height from 2 to 18 cm for postemergence treatments (1- to 4-leaf stage). Treated plants and controls were maintained in a greenhouse for 14 to 21 d, after which time all species were compared to controls and visually evaluated. Plant response ratings, summarized in Table E, are based on a scale of 0 to 100 where 0 is no effect and 100 is complete control. A dash (-) response means no test result.
# [4] = system: dayflower (Virginia (VA) dayflower, Commelina virginica); test: as above
# From the text: as §2, §3
# [5] = system: goosegrass (Eleusine indica); test: as above; conditions: Preemergence
# From the text: as §2, §3
# [6] = system: soybean (Glycine max); test: as above
# From the text: as §2, §3
# [7] = system: pigweed, palmer (palmer pigweed, Amaranthus palmeri); test: as above
# From the text: as §2, §3
# [8] = system: crabgrass, large (large crabgrass, Digitaria sanguinalis); test: as above; conditions: Preemergence
# From the text: as §2, §3
# [9] = system: beggarticks (hairy beggarticks, Bidens pilosa); test: as above
# From the text: as §2, §3
# [10] = system: sandbur (southem sandbur, Cenchrus echinatus); test: as above
# From the text: as §2, §3
# [11] = system: crabgrass, Brazilian (Brazilian crabgrass, Digitaria horizontalis); test: as above
# From the text: as §2, §3
# [12] = system: Italian ryegrass (Lolium multiflorum); test: as above
# From the text: as §2, §3
# [13] = system: kochia (Kochia scoparia); test: as above
# From the text: as §2, §3
# [14] = system: ragweed (common ragweed, Ambrosia elatior); test: as above
# From the text: as §2, §3
# [15] = system: barnyardgrass (Echinochloa crus-galli); test: as above
# From the text: as §2, §3
# [16] = 31 g ai/ha, visual, scale 0 no effect to 100 complete control
# [17] = 62 g ai/ha, scale 0 to 100 (0 no effect, 100 complete control)
# [18] = 125 g ai/ha, scale 0 to 100 (0 no effect, 100 complete control)
# [19] = 250 g ai/ha, scale 0 to 100 (0 no effect, 100 complete control)
# [20] = 62 g ai/ha, Postemergence, scale 0 to 100 (0 no effect, 100 complete control)
# [21] = 62 g ai/ha, Preemergence, scale 0 to 100 (0 no effect, 100 complete control)
# [22] = 125 g ai/ha, Postemergence, scale 0 to 100 (0 no effect, 100 complete control)
# [23] = 250 g ai/ha, Postemergence, scale 0 to 100 (0 no effect, 100 complete control)
# [24] = Postemergence, 31 g ai/ha, visual, scale 0 no effect to 100 complete control
# [25] = Preemergence, 31 g ai/ha, scale 0 to 100, 0 no effect, 100 complete control
# [26] = Preemergence, 125 g ai/ha, visual, scale 0 no effect to 100 complete control
# [27] = Preemergence, 250 g ai/ha, visual, scale 0 no effect to 100 complete control
# [28] = 31 g ai/ha, scale 0 to 100, 0 no effect, 100 complete control
# [29] = 125 g ai/ha, visual, scale 0 no effect to 100 complete control
# [30] = 250 g ai/ha, visual, scale 0 no effect to 100 complete control
# [31] = 125 g ai/ha, Preemergence, scale 0 to 100 (0 no effect, 100 complete control)
compound,measurement,setting,value
Cc1cc2ccccc2c(-c2c(O)c(C)nn(C)c2=O)c1C [Compound 34],"Plant response rating, Waterhemp_RES1",[1]; [16],90
same,"Plant response rating, Waterhemp_RES1",[1]; [17],90
same,"Plant response rating, Waterhemp_RES1",[1]; [18],90
same,"Plant response rating, Waterhemp_RES1",[1]; [19],95
same,"Plant response rating, Waterhemp_RES2",[2]; [16],40
same,"Plant response rating, Waterhemp_RES2",[2]; [17],80
same,"Plant response rating, Waterhemp_RES2",[2]; [19],70
same,"Plant response rating, Horseweed",[3]; [17],75
same,"Plant response rating, Horseweed",[3]; [18],80
same,"Plant response rating, Horseweed",[3]; [19],90
same,"Plant response rating, Horseweed",[3]; [16],85
same,"Plant response rating, Dayflower, VA",[4]; [20],80
same,"Plant response rating, Dayflower, VA",[4]; [21],35
same,"Plant response rating, Dayflower, VA",[4]; [22],90
same,"Plant response rating, Dayflower, VA",[4]; [23],90
same,"Plant response rating, Dayflower, VA",[4]; [24],60
same,"Plant response rating, Dayflower, VA",[4]; [25],35
same,"Plant response rating, Dayflower, VA",[4]; [26],70
same,"Plant response rating, Dayflower, VA",[4]; [27],90
same,"Plant response rating, Goosegrass",[5]; [17],5
same,"Plant response rating, Goosegrass",[5]; [28],5
same,"Plant response rating, Goosegrass",[5]; [29],10
same,"Plant response rating, Goosegrass",[5]; [30],10
same,"Plant response rating, Soybean",[6]; [20],40
same,"Plant response rating, Soybean",[6]; [21],35
same,"Plant response rating, Soybean",[6]; [22],70
same,"Plant response rating, Soybean",[6]; [31],15
same,"Plant response rating, Soybean",[6]; [23],60
same,"Plant response rating, Soybean",[6]; [24],35
same,"Plant response rating, Soybean",[6]; [25],0
same,"Plant response rating, Soybean",[6]; [27],0
same,"Plant response rating, Pigweed, Palmer",[7]; [20],80
same,"Plant response rating, Pigweed, Palmer",[7]; [21],0
same,"Plant response rating, Pigweed, Palmer",[7]; [22],65
same,"Plant response rating, Pigweed, Palmer",[7]; [31],90
same,"Plant response rating, Pigweed, Palmer",[7]; [23],75
same,"Plant response rating, Pigweed, Palmer",[7]; [24],50
same,"Plant response rating, Pigweed, Palmer",[7]; [25],0
same,"Plant response rating, Pigweed, Palmer",[7]; [27],90
same,"Plant response rating, Crabgrass, Large",[8]; [17],0
same,"Plant response rating, Crabgrass, Large",[8]; [28],0
same,"Plant response rating, Crabgrass, Large",[8]; [29],50
same,"Plant response rating, Crabgrass, Large",[8]; [30],20
same,"Plant response rating, Beggarticks",[9]; [20],100
same,"Plant response rating, Beggarticks",[9]; [21],100
same,"Plant response rating, Beggarticks",[9]; [22],98
same,"Plant response rating, Beggarticks",[9]; [23],100
same,"Plant response rating, Beggarticks",[9]; [24],90
same,"Plant response rating, Beggarticks",[9]; [25],90
same,"Plant response rating, Beggarticks",[9]; [26],100
same,"Plant response rating, Beggarticks",[9]; [27],100
same,"Plant response rating, Sandbur",[10]; [20],80
same,"Plant response rating, Sandbur",[10]; [21],40
same,"Plant response rating, Sandbur",[10]; [22],85
same,"Plant response rating, Sandbur",[10]; [31],65
same,"Plant response rating, Sandbur",[10]; [23],90
same,"Plant response rating, Sandbur",[10]; [24],70
same,"Plant response rating, Sandbur",[10]; [25],0
same,"Plant response rating, Sandbur",[10]; [27],70
same,"Plant response rating, Crabgrass, Brazil",[11]; [20],40
same,"Plant response rating, Crabgrass, Brazil",[11]; [21],10
same,"Plant response rating, Crabgrass, Brazil",[11]; [22],50
same,"Plant response rating, Crabgrass, Brazil",[11]; [23],50
same,"Plant response rating, Crabgrass, Brazil",[11]; [24],40
same,"Plant response rating, Crabgrass, Brazil",[11]; [25],0
same,"Plant response rating, Crabgrass, Brazil",[11]; [26],80
same,"Plant response rating, Crabgrass, Brazil",[11]; [27],80
same,"Plant response rating, Ryegrass, Italian",[12]; [20],80
same,"Plant response rating, Ryegrass, Italian",[12]; [21],100
same,"Plant response rating, Ryegrass, Italian",[12]; [22],85
same,"Plant response rating, Ryegrass, Italian",[12]; [31],100
same,"Plant response rating, Ryegrass, Italian",[12]; [23],90
same,"Plant response rating, Ryegrass, Italian",[12]; [24],65
same,"Plant response rating, Ryegrass, Italian",[12]; [25],90
same,"Plant response rating, Ryegrass, Italian",[12]; [27],100
same,"Plant response rating, Kochia",[13]; [20],98
same,"Plant response rating, Kochia",[13]; [21],5
same,"Plant response rating, Kochia",[13]; [22],85
same,"Plant response rating, Kochia",[13]; [23],85
same,"Plant response rating, Kochia",[13]; [24],70
same,"Plant response rating, Kochia",[13]; [25],0
same,"Plant response rating, Kochia",[13]; [26],5
same,"Plant response rating, Kochia",[13]; [27],85
same,"Plant response rating, Ragweed",[14]; [20],85
same,"Plant response rating, Ragweed",[14]; [21],75
same,"Plant response rating, Ragweed",[14]; [22],90
same,"Plant response rating, Ragweed",[14]; [31],100
same,"Plant response rating, Ragweed",[14]; [23],100
same,"Plant response rating, Ragweed",[14]; [24],90
same,"Plant response rating, Ragweed",[14]; [25],70
same,"Plant response rating, Ragweed",[14]; [27],100
same,"Plant response rating, Barnyardgrass",[15]; [20],40
same,"Plant response rating, Barnyardgrass",[15]; [21],0
same,"Plant response rating, Barnyardgrass",[15]; [22],40
same,"Plant response rating, Barnyardgrass",[15]; [23],40
same,"Plant response rating, Barnyardgrass",[15]; [24],30
same,"Plant response rating, Barnyardgrass",[15]; [25],0
same,"Plant response rating, Barnyardgrass",[15]; [26],35
same,"Plant response rating, Barnyardgrass",[15]; [27],65

# Source: patent US10597388B2, “Pyridazinone herbicides” (FMC CORPORATION, priority 2014, dated 2020)
